For this assay, the target named is T1, CFTR ΔF508 mutant (Homo sapiens, UniProt P13569, DEL508-508).
T1 construct: expressed in transfected cells; host or cells: CFBE41o- (adenoviral transduction)
T1 sequence (P13569 with tags, fused parts or gaps DEL508-508): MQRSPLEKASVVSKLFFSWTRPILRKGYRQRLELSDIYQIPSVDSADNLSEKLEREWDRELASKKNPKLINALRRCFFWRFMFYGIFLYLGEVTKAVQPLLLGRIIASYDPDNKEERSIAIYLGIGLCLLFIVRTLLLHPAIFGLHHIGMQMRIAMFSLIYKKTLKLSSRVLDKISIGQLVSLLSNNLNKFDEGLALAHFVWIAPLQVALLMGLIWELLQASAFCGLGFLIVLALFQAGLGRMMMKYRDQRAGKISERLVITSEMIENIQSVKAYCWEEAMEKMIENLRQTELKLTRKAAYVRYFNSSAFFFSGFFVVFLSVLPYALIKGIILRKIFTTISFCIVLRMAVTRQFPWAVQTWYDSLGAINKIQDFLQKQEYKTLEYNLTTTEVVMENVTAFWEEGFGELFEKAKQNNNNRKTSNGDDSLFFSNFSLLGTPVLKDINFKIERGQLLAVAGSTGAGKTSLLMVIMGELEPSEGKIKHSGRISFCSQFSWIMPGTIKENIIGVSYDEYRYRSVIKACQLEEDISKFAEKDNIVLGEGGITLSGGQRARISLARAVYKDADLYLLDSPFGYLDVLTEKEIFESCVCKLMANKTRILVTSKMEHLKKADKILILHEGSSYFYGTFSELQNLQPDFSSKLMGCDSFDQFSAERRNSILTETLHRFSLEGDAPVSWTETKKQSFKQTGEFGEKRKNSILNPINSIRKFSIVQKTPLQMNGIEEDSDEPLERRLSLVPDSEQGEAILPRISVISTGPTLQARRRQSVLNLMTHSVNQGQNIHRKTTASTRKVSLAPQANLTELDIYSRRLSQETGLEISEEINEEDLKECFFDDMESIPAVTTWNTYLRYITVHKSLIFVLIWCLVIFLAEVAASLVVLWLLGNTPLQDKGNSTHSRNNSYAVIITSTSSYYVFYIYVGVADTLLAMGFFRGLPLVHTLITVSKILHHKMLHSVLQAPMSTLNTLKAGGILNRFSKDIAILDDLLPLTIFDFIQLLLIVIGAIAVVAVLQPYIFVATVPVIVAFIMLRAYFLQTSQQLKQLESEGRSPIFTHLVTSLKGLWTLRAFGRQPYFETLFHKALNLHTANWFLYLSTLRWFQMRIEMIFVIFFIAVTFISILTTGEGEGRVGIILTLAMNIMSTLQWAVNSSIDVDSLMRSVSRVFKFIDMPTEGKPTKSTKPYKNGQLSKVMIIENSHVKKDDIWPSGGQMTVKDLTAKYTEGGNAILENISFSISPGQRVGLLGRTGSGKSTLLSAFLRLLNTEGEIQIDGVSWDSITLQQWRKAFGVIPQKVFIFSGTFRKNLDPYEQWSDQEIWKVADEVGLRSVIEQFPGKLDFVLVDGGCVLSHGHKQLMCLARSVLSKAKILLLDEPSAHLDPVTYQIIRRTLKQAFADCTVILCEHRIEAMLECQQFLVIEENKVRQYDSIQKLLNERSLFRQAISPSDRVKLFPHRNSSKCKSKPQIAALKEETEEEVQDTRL
Description: YFP-halide influx assay for the CFTR-ΔF508 mutation, gluconate buffer. Format: cell-based. The settings on record: CFBE41o- cells, forskolin 10.67 μM. A digest of the protocol:
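CFBE41o- cells adenovirally transduced with CFTR ΔF508 and YFP H148Q/I152L, then held 24 h at 27 °C or treated with CFTR modulator 24 h at 37 °C. I− quenching recorded for 7 s after injection; activity as 1-F/F0, EC50 from concentration plot.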
`CN(C(C)(C)C)S(=O)(=O)c1cc(C(N)=O)c(NC(=O)c2ccccc2F)s1` [Compound 107, 5-(N-tert-butyl-N-methylsulfamoyl)-2-(2-fluorobenzamido) thiophene-3-carboxamide] displayed an EC50 of 130 nM.
Compound `CC(C)(C)S(=O)(=O)c1cc(C(N)=O)c(NC(=O)c2ccccc2F)s1` [Compound 164, 5-(tert-butylsulfonyl)-2-(2-fluorobenzamido) thiophene-3-carboxamide] returned a concentration for a half-maximal effect (EC50) of more than 1000 nM.
As to `NC(=O)c1cc(S(=O)(=O)N2CCCCC2)sc1NC(=O)CCc1ccccc1` [Compound 40, 2-(3-phenylpropanamido)-5-(piperidin-1-ylsulfonyl) thiophene-3-carboxamide], it took 574 nM to reach a half-maximal effect (EC50).
The value for `N#Cc1cccc(C(=O)Nc2sc(S(=O)(=O)N3CCCCC3)cc2C(N)=O)c1` [Compound 11, 2-(3-cyanobenzamido)-5-(piperidin-1-ylsulfonyl) thiophene-3-carboxamide] was 568 nM; that for `NC(=O)c1cc(S(=O)(=O)N2CCCCC2)sc1NC(=O)c1cc2c(F)cccc2s1` [Compound 2, N-(3-carbamoyl-5-(piperidin-1-ylsulfonyl)thiophen-2-yl)-4-fluorobenzo[b] thiophene-2-carboxamide] was 483 nM; that for `CC1(C(=O)Nc2sc(S(=O)(=O)N3CCCCC3)cc2C(N)=O)CC1` [Compound 31, 2-(1-methylcyclopropanecarboxamido)-5-(piperidin-1-ylsulfonyl) thiophene-3-carboxamide] was 184 nM.
The same measure for `NC(=O)c1cc(S(=O)(=O)N2C[C@@H]3C[C@H]2CO3)sc1NC(=O)c1ccccc1F` [Compound 144, 5-((1S,4S)-2-oxa-5-azabicyclo[2.2.1]heptan-5-ylsulfonyl)-2-(2-fluorobenzamido) thiophene-3-carboxamide]: 365 nM.
As for `CC(C)(C)c1cc(C(=O)Nc2sc(S(=O)(=O)c3ccccc3)cc2C(N)=O)n[nH]1` [Compound 96, 5-tert-butyl-N-(3-carbamoyl-5-(phenylsulfonyl)thiophen-2-yl)-1H-pyrazole-3-carboxamide], the EC50 was determined as 253 nM.
The same measure for `CC(C)(C)C(=O)Nc1sc(S(=O)(=O)N2CCCCC2)cc1C(N)=O` [Compound 29, 5-(piperidin-1-ylsulfonyl)-2-pivalamidothiophene-3-carboxamide]: 272 nM; for `Cc1cc(F)ccc1C(=O)Nc1sc(S(=O)(=O)N2CCOCC2)cc1C(N)=O` [Compound 169, 2-(4-fluoro-2-methylbenzamido)-5-(morpholinosulfonyl) thiophene-3-carboxamide]: 210 nM.
The same measure for `NC(=O)c1cc(S(=O)(=O)N2CC(F)(F)C2)sc1NC(=O)c1ccccc1F` [Compound 126, 5-(3,3-diflluoroazetidin-1-ylsulfonyl)-2-(2-fluorobenzamido) thiophene-3-carboxamide]: 191 nM; for `CCS(=O)(=O)c1cc(C(N)=O)c(NC(=O)c2ccccc2F)s1` [Compound 128, 5-(ethylsulfonyl)-2-(2-fluorobenzamido) thiophene-3-carboxamide]: 400 nM.
The value for `NC(=O)c1cc(S(=O)(=O)N2CCOCC2)sc1NC(=O)c1ccccc1F` [Compound 46, 2-(2-fluorobenzamido)-5-(morpholinosulfonyl) thiophene-3-carboxamide] was 284 nM.
`CC(C)(C)OC(=O)N1CCC2(CC1)CCN(S(=O)(=O)c1cc(C(N)=O)c(NC(=O)c3ccccc3F)s1)C2` [Compound 148, tert-butyl 2-(4-carbamoyl-5-(2-fluorobenzamido)thiophen-2-ylsulfonyl)-2,8-diazaspiro[4.5]decane-8-carboxylate] displayed a 50% effective concentration (EC50) of 344 nM.
`Cc1ccc(C(=O)Nc2sc(S(=O)(=O)N3Cc4ccccc4C3)cc2C(N)=O)s1` [Compound 8, N-(3-carbamoyl-5-(isoindolin-2-ylsulfonyl)thiophen-2-yl)-5-methylthiphen-2-carboxamide] registered an EC50 of 646 nM.
The same measure for `NC(=O)c1cc(S(=O)(=O)N2CCC(F)(F)CC2)sc1NC(=O)C1(O)CCOCC1` [Compound 202, N-(3-carbamoyl-5-(4,4-difluoropiperidin-1-ylsulfonyl)thiophen-2-yl)-4-hydroxytetrahydro-2H-pyran-4-carboxamide]: 706 nM.
The compound `N#CC1CCN(S(=O)(=O)c2cc(C(N)=O)c(NC(=O)c3ccccc3F)s2)CC1` [Compound 162, 5-(4-cyanopiperidin-1-ylsulfonyl)-2-(2-fluorobenzamido) thiophene-3-carboxamide] had a half-maximal effective concentration (EC50) of 331 nM.
The value for `Cc1ccc(C(=O)Nc2sc(S(=O)(=O)N(C)Cc3ccccc3)cc2C(N)=O)s1` [Compound 6, N-(5-(N-benzyl-N-methylsulfamoyl)-3-carbamoylthiophen-2-yl)-5-methylthiophene-2-carboxamide] was 321 nM; that for `NC(=O)c1cc(S(=O)(=O)N2CCc3ccccc3C2)sc1NC(=O)c1ccccc1F` [Compound 150] was 638 nM; that for `NC(=O)c1cc(S(=O)(=O)N2CCOCC2)sc1NC(=O)c1ccccn1` [Compound 91, N-(3-carbamoyl-5-(morpholinosulfonyl)thiophen-2-yl) picolinamide] was 1520 nM.
In turn, `CC(C)(C)n1cc(C(=O)Nc2sc(S(=O)(=O)N3CCCCC3)cc2C(N)=O)cn1` [Compound 43, 1-tert-butyl-N-(3-carbamoyl-5-(piperidin-1-ylsulfonyl)thiophen-2-yl)-1H-pyrazole-4-carboxamide] showed a 50% effective concentration (EC50) of 670 nM.
For the compound `NC(=O)c1cc(S(=O)(=O)N2CCCOCC2)sc1NC(=O)c1cc[nH]n1` [Compound 146, N-(5-(1,4-oxazepan-4-ylsulfonyl)-3-carbamoylthiophen-2-yl)-1H-pyrazole-3-carboxamide], the response was half-maximal at 241 nM (EC50).
In turn, `NC(=O)c1cc(S(=O)(=O)c2ccccc2F)sc1NC(=O)c1ccccc1F` [Compound 117, 2-(2-fluorobenzamido)-5-(2-fluorophenylsulfonyl) thiophene-3-carboxamide] displayed an EC50 of 138 nM.
`Cc1c(S(=O)(=O)N2CCOCC2)sc(NC(=O)c2ccccc2F)c1C(N)=O` [Compound 85, 2-(2-fluorobenzamido)-4-methyl-5-(morpholinosulfonyl) thiophene-3-carboxamide] had a 50% effective concentration (EC50) of 114 nM.
Consider `CC(C)(C)C(=O)Nc1sc(S(=O)(=O)c2ccc(F)cc2)cc1C(N)=O` [Compound 112, 5-(4-fluorophenylsulfonyl)-2-pivalamidothiophene-3-carboxamide], for which the EC50 came to 352 nM.
The same measure for `NC(=O)c1cc(S(=O)(=O)N2CCOCC2)sc1NC(=O)c1nccs1` [Compound 93, N-(3-carbamoyl-5-(morpholinosulfonyl)thiophen-2-yl)thiazole-2-carboxamide]: 3330 nM; for `Cc1ccc(C(=O)Nc2sc(S(=O)(=O)N3CCN(C)CC3)cc2C(N)=O)s1` [Compound 5, N-(3-carbamoyl-5-(4-methylpiperazin-1-ylsulfonyl)thiophen-2-yl)-5-methylthiophene-2-carboxamide]: 944 nM; for `NC(=O)c1cc(S(=O)(=O)N2CCCCC2)sc1NC(=O)c1cccc(F)c1` [Compound 14, 2-(3-fluorobenzamido)-5-(piperidin-1-ylsulfonyl)thiophene-3-carboxamide]: 357 nM.
The value for `Cc1ccc(C(=O)Nc2sc(S(=O)(=O)c3ccccc3)c(C)c2C(N)=O)s1` [Compound 86, N-(3-carbamoyl-4-methyl-5-(phenylsulfonyl)thiophen-2-yl)-5-methylthiophene-2-carboxamide] was 138 nM; that for `NC(=O)c1cc(S(=O)(=O)N2CCCCC2)sc1NC(=O)c1cc2c(s1)CCCC2` [Compound 9, N-(3-carbamoyl-5-(piperidin-1-ylsulfonyl)thiophen-2-yl)-4,5,6,7-tetrahydrobenzo[b] thiophene-2-carboxamide] was 603 nM; that for `NC(=O)c1cc(S(=O)(=O)N2CC(F)C2)sc1NC(=O)c1cc[nH]n1` [Compound 205, N-(3-carbamoyl-5-(3-fluoroazetidin-1-ylsulfonyl)thiophen-2-yl)-1H-pyrazole-3-carboxamide] was 1150 nM.
The same measure for `NC(=O)c1cc(S(=O)(=O)N2CCOCC2)sc1NC(=O)c1ccco1` [Compound 99, N-(3-carbamoyl-5-(morpholinosulfonyl)thiophen-2-yl)furan-2-carboxamide]: 1940 nM.
`NC(=O)c1cc(S(=O)(=O)c2ccc(F)cc2CO)sc1NC(=O)c1ccccc1F` [Compound 196, 5-(4-fluoro-2-(hydroxymethyl)phenylsulfonyl)-2-(2-fluorobenzamido) thiophene-3-carboxamide] gave an EC50 of 2100 nM.
`CN1CCC(N(C)S(=O)(=O)c2cc(C(N)=O)c(NC(=O)c3ccccc3F)s2)CC1` [Compound 155, 2-(2-fluorobenzamido)-5-(N-methyl-N-(1-methylpiperidin-4-yl)sulfamoyl) thiophene-3-carboxamide] had a concentration giving a half-maximal response (EC50) of more than 1000 nM.
The value for `NC(=O)c1cc(S(=O)(=O)N2CCC(c3ccccc3)CC2)sc1NC(=O)c1ccccc1F` [Compound 159, 2-(2-fluorobenzamido)-5-(4-phenylpiperidin-1-ylsulfonyl)thiophene-3-carboxamide] was 407 nM; that for `NC(=O)c1cc(S(=O)(=O)N2CCCCC2)sc1NC(=O)c1cccc(-c2cc[nH]n2)c1` [Compound 54, 2-(3-(1H-pyrazol-3-yl)benzamido)-5-(piperidin-1-ylsulfonyl)thiophene-3-carboxamide] was 3160 nM.
The value for `NC(=O)c1cc(S(=O)(=O)N2CCOCC2)sc1NC(=O)c1cocn1` [Compound 94, N-(3-carbamoyl-5-(morpholinosulfonyl)thiophen-2-yl) oxazole-4-carboxamide] was 3330 nM.
The same measure for `CC(C)(C)c1ccc(C(=O)Nc2sc(S(=O)(=O)N3CCOCC3)cc2C(N)=O)s1` [Compound 51, 5-tert-butyl-N-(3-carbamoyl-5-(morpholinosulfonyl)thiophen-2-yl) thiophene-2-carboxamide]: 599 nM.
